# Measurements from ChEMBL document CHEMBL1671662, “In vitro activities of telavancin and six comparator agents against anaerobic bacterial isolates” (2009).
# Columns and labels:
# Fusobacterium mortiferum = test: Antibacterial activity against Fusobacterium mortiferum by CLSI M11-A6 agar dilution method in presence of beta-lactamase inhibitor Sulbactam; assay type: functional
# [1] = tested on: Paeniclostridium sordellii; test: Antibacterial activity against Clostridium sordellii by CLSI M11-A6 agar dilution method in presence of beta-lactamase inhibitor Sulbactam; assay type: functional; conditions: Paraclostridium sordellii
# Blautia producta = test: Antibacterial activity against Ruminococcus productus by CLSI M11-A6 agar dilution method in presence of beta-lactamase inhibitor Sulbactam; assay type: functional
# Hoylesella oralis = test: Antibacterial activity against Prevotella oralis by CLSI M11-A6 agar dilution method in presence of beta-lactamase inhibitor Sulbactam; assay type: functional
# Clostridium subterminale = test: Antibacterial activity against Clostridium subterminale by CLSI M11-A6 agar dilution method in presence of beta-lactamase inhibitor Sulbactam; assay type: functional
# [2] = tested on: Paraclostridium bifermentans; test: Antibacterial activity against Clostridium bifermentans by CLSI M11-A6 agar dilution method in presence of beta-lactamase inhibitor Sulbactam; assay type: functional
# Parvimonas micra = test: Antibacterial activity against Peptostreptococcus micros by CLSI M11-A6 agar dilution method in presence of beta-lactamase inhibitor Sulbactam; assay type: functional
# Bifidobacterium longum = test: Antibacterial activity against Bifidobacterium longum by CLSI M11-A6 agar dilution method in presence of beta-lactamase inhibitor Sulbactam; assay type: functional
# [3] = tested on: Peptoniphilus asaccharolyticus; test: Antibacterial activity against Peptoniphilus asaccharolyticus by CLSI M11-A6 agar dilution method in presence of beta-lactamase inhibitor Sulbactam; assay type: functional
# Bifidobacterium breve = test: Antibacterial activity against Bifidobacterium breve by CLSI M11-A6 agar dilution method in presence of beta-lactamase inhibitor Sulbactam; assay type: functional
# Odoribacter splanchnicus = test: Antibacterial activity against Bacteroides splanchnicus by CLSI M11-A6 agar dilution method in presence of beta-lactamase inhibitor Sulbactam; assay type: functional
# Thomasclavelia ramosa = test: Antibacterial activity against Clostridium ramosum by CLSI M11-A6 agar dilution method in presence of beta-lactamase inhibitor Sulbactam; assay type: functional
# [4] = tested on: Propionibacterium propionicum; test: Antibacterial activity against Propionibacterium propionicus by CLSI M11-A6 agar dilution method in presence of beta-lactamase inhibitor Sulbactam; assay type: functional; conditions: Arachnia propionica
# [5] = Antibacterial activity against Bifidobacterium infantis by CLSI M11-A6 agar dilution method in presence of beta-lactamase inhibitor Sulbactam; assay type: functional, Bifidobacterium longum subsp. infantis; conditions: Bifidobacterium longum
# Prevotella oris = test: Antibacterial activity against Prevotella oris by CLSI M11-A6 agar dilution method in presence of beta-lactamase inhibitor Sulbactam; assay type: functional; conditions: Segatella oris
# Clostridium bartlettii = test: Antibacterial activity against Clostridium bartlettii by CLSI M11-A6 agar dilution method in presence of beta-lactamase inhibitor Sulbactam; assay type: functional; conditions: Intestinibacter bartlettii
# Clostridium butyricum = test: Antibacterial activity against Clostridium butyricum by CLSI M11-A6 agar dilution method in presence of beta-lactamase inhibitor Sulbactam; assay type: functional
# Bacteroides ovatus = test: Antibacterial activity against Bacteroides ovatus by CLSI M11-A6 agar dilution method in presence of beta-lactamase inhibitor Sulbactam; assay type: functional
# Blautia luti = test: Antibacterial activity against Ruminococcus luti by CLSI M11-A6 agar dilution method in presence of beta-lactamase inhibitor Sulbactam; assay type: functional
# Ruminococcus albus = test: Antibacterial activity against Ruminococcus albus by CLSI M11-A6 agar dilution method in presence of beta-lactamase inhibitor Sulbactam; assay type: functional; conditions: Hominimerdicola alba
# Eggerthella lenta = test: Antibacterial activity against Eggerthella lenta by CLSI M11-A6 agar dilution method in presence of beta-lactamase inhibitor Sulbactam; assay type: functional
# [6] = tested on: Sutterella wadsworthensis; test: Antibacterial activity against Sutterella wadsworthensis by CLSI M11-A6 agar dilution method in presence of beta-lactamase inhibitor Sulbactam; assay type: functional
# [7] = tested on: Enterocloster clostridioformis; test: Antibacterial activity against Clostridium clostridioforme by CLSI M11-A6 agar dilution method in presence of beta-lactamase inhibitor Sulbactam; assay type: functional
# Anaerococcus tetradius = test: Antibacterial activity against Anaerococcus tetradius by CLSI M11-A6 agar dilution method in presence of beta-lactamase inhibitor Sulbactam; assay type: functional
# [8] = tested on: Clostridium celerecrescens; test: Antibacterial activity against Clostridium celerecrescens by CLSI M11-A6 agar dilution method in presence of beta-lactamase inhibitor Sulbactam; assay type: functional; conditions: Lacrimispora celerecrescens
# Clostridium bolteae = test: Antibacterial activity against Clostridium bolteae by CLSI M11-A6 agar dilution method in presence of beta-lactamase inhibitor Sulbactam; assay type: functional; conditions: Enterocloster bolteae
# Ruminococcus obeum = test: Antibacterial activity against Ruminococcus obeum by CLSI M11-A6 agar dilution method in presence of beta-lactamase inhibitor Sulbactam; assay type: functional; conditions: Blautia obeum
# [9] = tested on: Ruminococcus flavefaciens; test: Antibacterial activity against Ruminococcus flavefaciens by CLSI M11-A6 agar dilution method in presence of beta-lactamase inhibitor Sulbactam; assay type: functional
# [10] = tested on: Bifidobacterium adolescentis; test: Antibacterial activity against Bifidobacterium adolescentis by CLSI M11-A6 agar dilution method in presence of beta-lactamase inhibitor Sulbactam; assay type: functional
# Collinsella aerofaciens = test: Antibacterial activity against Colinsella aerofaciens by CLSI M11-A6 agar dilution method in presence of beta-lactamase inhibitor Sulbactam; assay type: functional
# Fusobacterium varium = test: Antibacterial activity against Fusobacterium varium by CLSI M11-A6 agar dilution method in presence of beta-lactamase inhibitor Sulbactam; assay type: functional
# Clostridium sporogenes = test: Antibacterial activity against Clostridium sporogenes by CLSI M11-A6 agar dilution method in presence of beta-lactamase inhibitor Sulbactam; assay type: functional
# [11] = tested on: Clostridium paraputrificum; test: Antibacterial activity against Clostridium paraputrificum by CLSI M11-A6 agar dilution method in presence of beta-lactamase inhibitor Sulbactam; assay type: functional
# Prevotella bivia = test: Antibacterial activity against Prevotella bivia by CLSI M11-A6 agar dilution method in presence of beta-lactamase inhibitor Sulbactam; assay type: functional
# Prevotella denticola = test: Antibacterial activity against Prevotella denticola by CLSI M11-A6 agar dilution method in presence of beta-lactamase inhibitor Sulbactam; assay type: functional
smiles,measurement,setting,value
CC1(C)S[C@@H]2[C@H](NC(=O)[C@H](N)c3ccccc3)C(=O)N2[C@H]1C(=O)O [AMPICILLIN],MIC50,Fusobacterium mortiferum,2 µg/mL
same,MIC90,Fusobacterium mortiferum,16 µg/mL
same,MIC50,[1],0.25 µg/mL
same,MIC90,[1],1 µg/mL
same,MIC50,Blautia producta,≤ 0.12 µg/mL
same,MIC90,Blautia producta,1 µg/mL
same,MIC50,Hoylesella oralis,≤ 0.12 µg/mL
same,MIC90,Hoylesella oralis,2 µg/mL
same,MIC50,Clostridium subterminale,≤ 0.12 µg/mL
same,MIC90,Clostridium subterminale,0.25 µg/mL
same,MIC50,[2],0.25 µg/mL
same,MIC90,[2],1 µg/mL
same,MIC50,Parvimonas micra,0.25 µg/mL
same,MIC90,Parvimonas micra,0.5 µg/mL
same,MIC50,Bifidobacterium longum,0.25 µg/mL
same,MIC90,Bifidobacterium longum,1 µg/mL
same,MIC50,[3],0.25 µg/mL
same,MIC90,[3],0.5 µg/mL
same,MIC50,Bifidobacterium breve,0.25 µg/mL
same,MIC90,Bifidobacterium breve,1 µg/mL
same,MIC,Odoribacter splanchnicus,1 µg/mL
same,MIC50,Odoribacter splanchnicus,1 µg/mL
same,MIC90,Odoribacter splanchnicus,4 µg/mL
same,MIC50,Thomasclavelia ramosa,≤ 0.12 µg/mL
same,MIC90,Thomasclavelia ramosa,0.5 µg/mL
same,MIC50,[4],0.25 µg/mL
same,MIC90,[4],1 µg/mL
same,MIC50,[5],0.25 µg/mL
same,MIC90,[5],1 µg/mL
same,MIC50,Prevotella oris,≤ 0.12 µg/mL
same,MIC90,Prevotella oris,2 µg/mL
same,MIC50,Clostridium bartlettii,0.25 µg/mL
same,MIC90,Clostridium bartlettii,1 µg/mL
same,MIC50,Clostridium butyricum,0.25 µg/mL
same,MIC90,Clostridium butyricum,1 µg/mL
same,MIC50,Bacteroides ovatus,2 µg/mL
same,MIC90,Bacteroides ovatus,4 µg/mL
same,MIC50,Blautia luti,≤ 0.12 µg/mL
same,MIC90,Blautia luti,1 µg/mL
same,MIC50,Ruminococcus albus,≤ 0.12 µg/mL
same,MIC90,Ruminococcus albus,1 µg/mL
same,MIC50,Eggerthella lenta,0.25 µg/mL
same,MIC90,Eggerthella lenta,1 µg/mL
same,MIC,[6],0.25 µg/mL
same,MIC50,[7],2 µg/mL
same,MIC90,[7],16 µg/mL
same,MIC50,Anaerococcus tetradius,0.25 µg/mL
same,MIC90,Anaerococcus tetradius,0.5 µg/mL
same,MIC50,[8],0.25 µg/mL
same,MIC90,[8],1 µg/mL
same,MIC50,Clostridium bolteae,8 µg/mL
same,MIC90,Clostridium bolteae,16 µg/mL
same,MIC50,Ruminococcus obeum,≤ 0.12 µg/mL
same,MIC90,Ruminococcus obeum,0.25 µg/mL
same,MIC50,[9],≤ 0.12 µg/mL
same,MIC90,[9],1 µg/mL
same,MIC50,[10],0.25 µg/mL
same,MIC90,[10],1 µg/mL
same,MIC50,Collinsella aerofaciens,0.25 µg/mL
same,MIC90,Collinsella aerofaciens,1 µg/mL
same,MIC50,Fusobacterium varium,2 µg/mL
same,MIC90,Fusobacterium varium,16 µg/mL
same,MIC50,Clostridium sporogenes,0.25 µg/mL
same,MIC90,Clostridium sporogenes,1 µg/mL
same,MIC50,[11],0.25 µg/mL
same,MIC90,[11],1 µg/mL
same,MIC50,Prevotella bivia,≤ 0.12 µg/mL
same,MIC90,Prevotella bivia,2 µg/mL
same,MIC50,Prevotella denticola,≤ 0.12 µg/mL
same,MIC90,Prevotella denticola,2 µg/mL
